Laboratory results taken from article PMC8781450, “Isoquinoline Alkaloids as Protein Tyrosine Phosphatase Inhibitors from a Deep-Sea-Derived Fungus Aspergillus puniceus” (Marine Drugs, 2022).

test system: not listed separately; assay: Cytotoxicity by CCK-8 method; type: cell-based; conditions: human, H1975 lung adenocarcinoma cells, read-out: Cytotoxicity (IC50) H1975 Cell (after 24 h)
Description: Cytotoxic activity was evaluated using human lung adenocarcinoma cell line H1975 by CCK-8 method. Briefly, each of the test compounds was dissolved in DMSO and further diluted to give final concentrations of 80, 40, 20, 10, 5, 2.5, and 1.25 µg/mL, respectively. H1975 cells (5 × 10^3 cells/plate) were seeded in 96-well plates and treated with compounds at the indicated concentration for 24 h, and then 10 μL CCK-8 reagent was added to each well, and the plates were incubated at 37 °C for another 4 h. Next, the optical density was measured at a wavelength of 450 nm with the Bio-Rad (Hercules, CA, USA) microplate reader. Dose–response curves were generated, and the IC50 values were calculated from the linear portion of log dose–response curves.

| Compound | IC50 at 24 h |
| --- | --- |
| CCC(=O)c1c(C)c(O)c(Cc2c(OC)cc3ccncc3c2O)c(O)c1O [Compound 10, Puniceusine J] | > 80 µM |
| COc1cc2ccncc2c(O)c1Cc1c(O)cc(O)c(OC)c1C(=O)C(C)=O [Compound 8, Puniceusine H] | > 80 µM |
| COc1cc2ccncc2c(O)c1Cc1c(O)cc(O)c2c1[C@@H](C)OC2 [Compound 9, Puniceusine I] | > 80 µM |
| COc1cc2ccncc2c(O)c1CC(C)C(=O)O (stereo not drawn) [Compound 6, Puniceusine F] | > 80 µM |
| COc1cc2ccncc2c(O)c1Cc1c(OC)cc2ccncc2c1O [Compound 3, Puniceusine C] | 71.3 µM |
| COc1cc2ccncc2c(O)c1Cc1c(OC)c(C)c(O)c2cnccc12 [Compound 5, Puniceusine E] | > 80 µM |

biological target: LAR (Homo sapiens, UniProt P10586); assay: Protein phosphatase inhibition assay, LAR; conditions: not given
Sequence (P10586 30-1907): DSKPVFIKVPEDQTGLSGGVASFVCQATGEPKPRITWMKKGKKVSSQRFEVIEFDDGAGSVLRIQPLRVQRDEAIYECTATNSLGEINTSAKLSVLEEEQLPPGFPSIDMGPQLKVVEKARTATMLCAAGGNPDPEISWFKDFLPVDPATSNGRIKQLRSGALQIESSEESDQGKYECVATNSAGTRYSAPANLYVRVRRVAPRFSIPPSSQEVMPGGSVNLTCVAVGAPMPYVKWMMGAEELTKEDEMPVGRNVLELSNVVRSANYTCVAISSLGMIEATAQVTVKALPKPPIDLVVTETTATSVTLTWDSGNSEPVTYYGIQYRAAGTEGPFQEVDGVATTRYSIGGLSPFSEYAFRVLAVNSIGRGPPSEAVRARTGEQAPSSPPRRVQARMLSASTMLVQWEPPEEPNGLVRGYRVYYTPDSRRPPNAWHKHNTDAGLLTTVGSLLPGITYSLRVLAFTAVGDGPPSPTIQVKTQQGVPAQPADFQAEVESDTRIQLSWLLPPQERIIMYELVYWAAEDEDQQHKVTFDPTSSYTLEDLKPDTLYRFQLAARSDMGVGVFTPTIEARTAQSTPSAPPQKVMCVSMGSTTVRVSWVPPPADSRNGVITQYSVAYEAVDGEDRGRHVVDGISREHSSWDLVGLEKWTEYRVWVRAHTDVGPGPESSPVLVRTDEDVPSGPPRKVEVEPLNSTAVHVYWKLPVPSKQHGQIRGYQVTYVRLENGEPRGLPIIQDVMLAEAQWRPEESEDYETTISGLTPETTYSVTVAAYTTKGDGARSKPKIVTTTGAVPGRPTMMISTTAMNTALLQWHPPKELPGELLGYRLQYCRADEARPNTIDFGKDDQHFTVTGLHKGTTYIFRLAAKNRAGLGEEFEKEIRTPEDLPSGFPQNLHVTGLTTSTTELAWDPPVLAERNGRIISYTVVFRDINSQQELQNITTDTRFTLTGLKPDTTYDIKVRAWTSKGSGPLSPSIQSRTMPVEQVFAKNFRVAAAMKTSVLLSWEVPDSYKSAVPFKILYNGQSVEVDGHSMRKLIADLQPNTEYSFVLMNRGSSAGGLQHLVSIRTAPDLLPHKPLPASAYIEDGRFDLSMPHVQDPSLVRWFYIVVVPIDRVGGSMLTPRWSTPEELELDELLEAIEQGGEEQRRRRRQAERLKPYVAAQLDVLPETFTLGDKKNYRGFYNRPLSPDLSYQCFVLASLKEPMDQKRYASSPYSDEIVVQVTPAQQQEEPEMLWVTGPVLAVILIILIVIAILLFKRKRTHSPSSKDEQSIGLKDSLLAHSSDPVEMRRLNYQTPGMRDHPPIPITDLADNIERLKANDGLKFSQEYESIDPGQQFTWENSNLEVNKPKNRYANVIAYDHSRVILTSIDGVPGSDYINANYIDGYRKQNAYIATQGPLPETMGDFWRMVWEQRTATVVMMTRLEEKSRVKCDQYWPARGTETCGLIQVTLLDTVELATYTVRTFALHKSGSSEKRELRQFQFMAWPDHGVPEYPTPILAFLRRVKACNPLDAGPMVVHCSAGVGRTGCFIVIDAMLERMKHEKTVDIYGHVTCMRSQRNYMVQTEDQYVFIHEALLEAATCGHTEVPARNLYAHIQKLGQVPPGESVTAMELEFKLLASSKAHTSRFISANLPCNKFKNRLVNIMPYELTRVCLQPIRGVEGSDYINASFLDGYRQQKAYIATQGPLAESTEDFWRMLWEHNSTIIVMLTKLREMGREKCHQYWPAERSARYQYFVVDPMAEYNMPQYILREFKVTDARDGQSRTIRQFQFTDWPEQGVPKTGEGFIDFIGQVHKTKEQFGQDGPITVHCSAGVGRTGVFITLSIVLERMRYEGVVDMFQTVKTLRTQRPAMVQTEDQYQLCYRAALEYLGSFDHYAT

| IC50 | Compound |
| --- | --- |
| 100 µM | CCC(=O)c1c(C)c(O)c(Cc2c(OC)cc3ccncc3c2O)c(O)c1O [Compound 10, Puniceusine J] |
| > 200 µM | COc1cc2ccncc2c(O)c1Cc1c(O)cc(O)c(OC)c1C(=O)C(C)=O [Compound 8, Puniceusine H] |
| > 200 µM | COc1cc2ccncc2c(O)c1Cc1c(O)cc(O)c2c1[C@@H](C)OC2 [Compound 9, Puniceusine I] |
| > 200 µM | COc1cc2ccncc2c(O)c1CC(C)C(=O)O (stereo not drawn) [Compound 6, Puniceusine F] |
| 21.9 µM | COc1cc2ccncc2c(O)c1Cc1c(OC)cc2ccncc2c1O [Compound 3, Puniceusine C] |
| > 200 µM | COc1cc2ccncc2c(O)c1Cc1c(OC)c(C)c(O)c2cnccc12 [Compound 5, Puniceusine E] |

biological target: T1, CD45 (Homo sapiens, UniProt P08575); assay: Protein phosphatase inhibition assay, CD45; conditions: not given
T1 sequence (P08575 26-1306): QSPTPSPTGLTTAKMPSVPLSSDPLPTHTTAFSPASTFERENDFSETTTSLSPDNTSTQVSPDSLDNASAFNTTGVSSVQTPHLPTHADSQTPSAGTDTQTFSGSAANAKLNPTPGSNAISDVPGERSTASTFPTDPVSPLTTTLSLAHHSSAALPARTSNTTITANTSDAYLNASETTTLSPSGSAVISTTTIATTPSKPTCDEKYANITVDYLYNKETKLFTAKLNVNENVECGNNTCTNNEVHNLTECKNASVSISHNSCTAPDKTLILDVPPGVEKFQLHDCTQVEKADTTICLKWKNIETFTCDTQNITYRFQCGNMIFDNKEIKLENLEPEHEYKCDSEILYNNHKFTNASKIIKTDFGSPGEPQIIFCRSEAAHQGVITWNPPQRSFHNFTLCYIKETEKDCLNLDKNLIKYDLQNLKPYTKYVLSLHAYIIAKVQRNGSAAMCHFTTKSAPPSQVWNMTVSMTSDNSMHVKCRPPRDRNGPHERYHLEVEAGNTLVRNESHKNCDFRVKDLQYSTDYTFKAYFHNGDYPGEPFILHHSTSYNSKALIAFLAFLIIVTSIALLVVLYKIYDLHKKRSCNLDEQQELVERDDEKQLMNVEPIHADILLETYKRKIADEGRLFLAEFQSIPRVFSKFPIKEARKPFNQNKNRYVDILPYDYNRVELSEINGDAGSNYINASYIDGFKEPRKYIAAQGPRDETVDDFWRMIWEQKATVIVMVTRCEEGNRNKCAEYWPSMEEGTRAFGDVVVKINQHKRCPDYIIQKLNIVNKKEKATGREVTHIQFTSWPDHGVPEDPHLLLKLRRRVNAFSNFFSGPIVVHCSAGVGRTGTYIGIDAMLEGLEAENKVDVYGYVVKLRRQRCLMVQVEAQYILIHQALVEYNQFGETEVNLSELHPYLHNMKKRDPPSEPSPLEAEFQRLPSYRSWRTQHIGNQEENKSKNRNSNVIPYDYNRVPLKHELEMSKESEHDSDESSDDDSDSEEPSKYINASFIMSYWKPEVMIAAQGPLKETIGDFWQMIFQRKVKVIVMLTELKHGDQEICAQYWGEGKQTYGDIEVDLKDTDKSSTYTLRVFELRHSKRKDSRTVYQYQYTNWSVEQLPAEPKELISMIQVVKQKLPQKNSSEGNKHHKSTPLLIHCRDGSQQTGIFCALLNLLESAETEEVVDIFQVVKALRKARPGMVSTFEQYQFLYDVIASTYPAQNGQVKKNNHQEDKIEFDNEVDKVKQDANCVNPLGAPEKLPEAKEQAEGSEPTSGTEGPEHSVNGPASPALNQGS

| IC50 | Compound |
| --- | --- |
| 30.8 µM | CCC(=O)c1c(C)c(O)c(Cc2c(OC)cc3ccncc3c2O)c(O)c1O [Compound 10, Puniceusine J] |
| 49 µM | COc1cc2ccncc2c(O)c1Cc1c(O)cc(O)c(OC)c1C(=O)C(C)=O [Compound 8, Puniceusine H] |
| 27.2 µM | COc1cc2ccncc2c(O)c1Cc1c(O)cc(O)c2c1[C@@H](C)OC2 [Compound 9, Puniceusine I] |
| > 200 µM | COc1cc2ccncc2c(O)c1CC(C)C(=O)O (stereo not drawn) [Compound 6, Puniceusine F] |
| 8.4 µM | COc1cc2ccncc2c(O)c1Cc1c(OC)cc2ccncc2c1O [Compound 3, Puniceusine C] |
| 103 µM | COc1cc2ccncc2c(O)c1Cc1c(OC)c(C)c(O)c2cnccc12 [Compound 5, Puniceusine E] |

same assay, conditions: read-out: Inhibitory Effect against Phosphatases (IC50) CD45

| IC50 | Compound |
| --- | --- |
| 0.29 µM | CC(=O)c1ccc(NC2=C(Cl)C(=O)c3ccccc3C2=O)cc1 [AACQ, 2-[(4-acetylphenyl)amino]-3-chloronaphthoquinone, reference compound] |

biological target: SHP1 (Homo sapiens, UniProt P29350); assay: Protein phosphatase inhibition assay, SHP1; conditions: not given
Sequence (P29350 whole entry): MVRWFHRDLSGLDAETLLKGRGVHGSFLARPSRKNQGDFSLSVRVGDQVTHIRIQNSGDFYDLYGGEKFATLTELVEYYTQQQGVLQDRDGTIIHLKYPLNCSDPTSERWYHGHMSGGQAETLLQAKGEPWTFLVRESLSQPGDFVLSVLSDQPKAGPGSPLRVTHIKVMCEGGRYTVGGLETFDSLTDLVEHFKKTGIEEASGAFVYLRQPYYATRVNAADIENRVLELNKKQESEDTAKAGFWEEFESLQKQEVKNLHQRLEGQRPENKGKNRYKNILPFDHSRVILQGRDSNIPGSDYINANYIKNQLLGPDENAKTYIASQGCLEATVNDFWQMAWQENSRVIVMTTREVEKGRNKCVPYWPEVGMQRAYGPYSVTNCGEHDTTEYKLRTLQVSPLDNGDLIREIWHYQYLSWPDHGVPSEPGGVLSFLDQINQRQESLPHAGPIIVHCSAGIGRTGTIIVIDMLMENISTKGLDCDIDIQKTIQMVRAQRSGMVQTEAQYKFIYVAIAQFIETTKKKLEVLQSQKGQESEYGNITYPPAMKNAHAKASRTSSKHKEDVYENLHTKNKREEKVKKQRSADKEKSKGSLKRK

| IC50 | Compound |
| --- | --- |
| > 200 µM | CCC(=O)c1c(C)c(O)c(Cc2c(OC)cc3ccncc3c2O)c(O)c1O [Compound 10, Puniceusine J] |
| 100 µM | COc1cc2ccncc2c(O)c1Cc1c(O)cc(O)c(OC)c1C(=O)C(C)=O [Compound 8, Puniceusine H] |
| 41.8 µM | COc1cc2ccncc2c(O)c1Cc1c(O)cc(O)c2c1[C@@H](C)OC2 [Compound 9, Puniceusine I] |
| 200 µM | COc1cc2ccncc2c(O)c1CC(C)C(=O)O (stereo not drawn) [Compound 6, Puniceusine F] |
| 20.7 µM | COc1cc2ccncc2c(O)c1Cc1c(OC)cc2ccncc2c1O [Compound 3, Puniceusine C] |
| 145 µM | COc1cc2ccncc2c(O)c1Cc1c(OC)c(C)c(O)c2cnccc12 [Compound 5, Puniceusine E] |

same assay, conditions: read-out: Inhibitory Effect against Phosphatases (IC50) SHP1

| Compound | IC50 |
| --- | --- |
| [Na+].[Na+].[Na+].[O]=[V]([O-])([O-])[O-] [Na3VO4, reference compound] | 4.4 µM |

biological target: T2, TCPTP (Homo sapiens, UniProt P17706); assay: Protein phosphatase inhibition assay, TCPTP; conditions: not given
T2 sequence (P17706 1-415): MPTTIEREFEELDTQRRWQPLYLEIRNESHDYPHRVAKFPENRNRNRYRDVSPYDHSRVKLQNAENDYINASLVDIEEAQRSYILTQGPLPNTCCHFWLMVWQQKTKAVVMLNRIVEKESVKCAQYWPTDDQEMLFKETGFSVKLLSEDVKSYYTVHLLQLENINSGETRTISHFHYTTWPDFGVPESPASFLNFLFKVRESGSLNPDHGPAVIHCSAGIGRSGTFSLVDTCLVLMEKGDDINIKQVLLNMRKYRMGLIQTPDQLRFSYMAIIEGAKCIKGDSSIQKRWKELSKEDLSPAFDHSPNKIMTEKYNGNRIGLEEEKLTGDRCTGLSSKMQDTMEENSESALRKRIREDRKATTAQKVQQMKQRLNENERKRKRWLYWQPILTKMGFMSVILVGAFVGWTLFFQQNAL

| IC50 | Compound |
| --- | --- |
| > 200 µM | CCC(=O)c1c(C)c(O)c(Cc2c(OC)cc3ccncc3c2O)c(O)c1O [Compound 10, Puniceusine J] |
| > 200 µM | COc1cc2ccncc2c(O)c1Cc1c(O)cc(O)c(OC)c1C(=O)C(C)=O [Compound 8, Puniceusine H] |
| 57.7 µM | COc1cc2ccncc2c(O)c1Cc1c(O)cc(O)c2c1[C@@H](C)OC2 [Compound 9, Puniceusine I] |
| > 200 µM | COc1cc2ccncc2c(O)c1CC(C)C(=O)O (stereo not drawn) [Compound 6, Puniceusine F] |
| > 200 µM | COc1cc2ccncc2c(O)c1Cc1c(OC)cc2ccncc2c1O [Compound 3, Puniceusine C] |
| > 200 µM | COc1cc2ccncc2c(O)c1Cc1c(OC)c(C)c(O)c2cnccc12 [Compound 5, Puniceusine E] |

same assay, conditions: read-out: Inhibitory Effect against Phosphatases (IC50) TCPTP

| Compound | IC50 |
| --- | --- |
| [Na+].[Na+].[Na+].[O]=[V]([O-])([O-])[O-] [Na3VO4, reference compound] | 2.4 µM |

biological target: T3, PTP1B (Homo sapiens, UniProt P18031); assay: Protein phosphatase inhibition assay, PTP1B; conditions: not given
T3 sequence (P18031 1-435): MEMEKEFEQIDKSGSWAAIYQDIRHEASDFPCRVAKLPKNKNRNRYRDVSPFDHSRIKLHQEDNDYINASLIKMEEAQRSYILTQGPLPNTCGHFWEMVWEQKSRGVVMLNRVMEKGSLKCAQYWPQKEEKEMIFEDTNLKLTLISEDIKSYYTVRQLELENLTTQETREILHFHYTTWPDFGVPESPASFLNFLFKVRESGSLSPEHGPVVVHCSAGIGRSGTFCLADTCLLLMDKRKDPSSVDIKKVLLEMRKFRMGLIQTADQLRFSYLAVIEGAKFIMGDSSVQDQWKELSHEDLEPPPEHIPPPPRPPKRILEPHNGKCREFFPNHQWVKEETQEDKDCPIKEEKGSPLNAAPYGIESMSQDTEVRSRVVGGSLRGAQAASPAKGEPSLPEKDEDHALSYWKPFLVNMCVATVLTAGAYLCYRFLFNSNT

| IC50 | Compound |
| --- | --- |
| > 200 µM | CCC(=O)c1c(C)c(O)c(Cc2c(OC)cc3ccncc3c2O)c(O)c1O [Compound 10, Puniceusine J] |
| 180 µM | COc1cc2ccncc2c(O)c1Cc1c(O)cc(O)c(OC)c1C(=O)C(C)=O [Compound 8, Puniceusine H] |
| 68.8 µM | COc1cc2ccncc2c(O)c1Cc1c(O)cc(O)c2c1[C@@H](C)OC2 [Compound 9, Puniceusine I] |
| > 200 µM | COc1cc2ccncc2c(O)c1CC(C)C(=O)O (stereo not drawn) [Compound 6, Puniceusine F] |
| 64.5 µM | COc1cc2ccncc2c(O)c1Cc1c(OC)cc2ccncc2c1O [Compound 3, Puniceusine C] |
| 200 µM | COc1cc2ccncc2c(O)c1Cc1c(OC)c(C)c(O)c2cnccc12 [Compound 5, Puniceusine E] |
